Source: patent US5330992A, “1-cyclopropyl-4-pyridyl-quinolinones” (priority 1992, dated 1994)
Read-outs that look alike come from different tables or passages of the source.

Assays:
human topoisomerase II = molecular target: T1, human topoisomerase II (Homo sapiens, UniProt P11388); assay: Mammalian Topoisomerase II Inhibition Assay (DNA-topo II complex formation); type: biochemical; conditions: EC50 = concentration with activity equal to EC50 of reference mAMSA; read-out: TopoII Inh. EC50
T1 construct: Topo II was purified from late log phase suspension cultures of HeLa WIS; endogenous in cells; host or cells: HeLa WIS suspension cultures, late log phase (enzyme purified from the cells)
T1 sequence (P11388 whole entry): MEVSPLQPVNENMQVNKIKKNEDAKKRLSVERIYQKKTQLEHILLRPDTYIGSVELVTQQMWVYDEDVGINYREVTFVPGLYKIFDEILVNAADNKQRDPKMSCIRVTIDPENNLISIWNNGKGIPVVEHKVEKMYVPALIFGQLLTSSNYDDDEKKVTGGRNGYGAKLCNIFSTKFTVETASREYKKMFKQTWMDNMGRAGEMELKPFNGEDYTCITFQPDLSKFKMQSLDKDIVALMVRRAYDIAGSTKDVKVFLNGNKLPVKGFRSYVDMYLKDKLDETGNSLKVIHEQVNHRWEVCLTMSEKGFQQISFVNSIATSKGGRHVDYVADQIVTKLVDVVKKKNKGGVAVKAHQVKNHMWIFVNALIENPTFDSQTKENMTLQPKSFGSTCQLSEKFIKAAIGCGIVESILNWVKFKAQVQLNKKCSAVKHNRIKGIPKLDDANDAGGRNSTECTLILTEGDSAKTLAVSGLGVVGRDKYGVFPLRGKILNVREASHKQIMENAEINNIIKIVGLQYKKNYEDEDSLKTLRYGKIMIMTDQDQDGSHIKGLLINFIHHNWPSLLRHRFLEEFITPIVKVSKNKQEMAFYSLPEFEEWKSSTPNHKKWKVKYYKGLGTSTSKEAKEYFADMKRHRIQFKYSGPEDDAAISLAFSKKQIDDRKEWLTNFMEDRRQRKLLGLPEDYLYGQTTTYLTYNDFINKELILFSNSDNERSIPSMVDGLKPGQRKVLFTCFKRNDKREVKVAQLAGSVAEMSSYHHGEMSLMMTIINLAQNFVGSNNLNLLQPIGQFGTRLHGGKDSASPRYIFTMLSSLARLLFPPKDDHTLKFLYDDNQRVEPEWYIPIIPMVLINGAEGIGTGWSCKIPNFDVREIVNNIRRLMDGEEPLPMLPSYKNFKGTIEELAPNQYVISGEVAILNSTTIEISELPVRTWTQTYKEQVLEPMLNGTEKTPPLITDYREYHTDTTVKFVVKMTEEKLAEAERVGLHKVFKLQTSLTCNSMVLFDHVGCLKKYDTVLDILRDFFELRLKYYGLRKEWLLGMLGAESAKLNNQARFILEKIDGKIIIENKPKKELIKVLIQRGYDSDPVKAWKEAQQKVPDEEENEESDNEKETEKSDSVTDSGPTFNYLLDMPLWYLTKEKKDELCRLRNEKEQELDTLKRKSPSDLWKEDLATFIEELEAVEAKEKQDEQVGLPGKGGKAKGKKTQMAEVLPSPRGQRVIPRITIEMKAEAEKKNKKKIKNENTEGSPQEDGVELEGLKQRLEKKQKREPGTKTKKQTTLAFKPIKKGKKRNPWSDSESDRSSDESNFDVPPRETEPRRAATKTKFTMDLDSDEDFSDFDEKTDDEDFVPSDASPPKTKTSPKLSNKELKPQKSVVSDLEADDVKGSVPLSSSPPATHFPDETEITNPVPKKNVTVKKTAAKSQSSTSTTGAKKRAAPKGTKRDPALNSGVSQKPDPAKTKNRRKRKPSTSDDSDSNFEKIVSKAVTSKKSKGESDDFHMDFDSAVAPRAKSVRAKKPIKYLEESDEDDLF
Method: Mammalian Topoisomerase II Inhibition Assay Procedure
The assay quantitates the amount of topo II covalently complexed by DNA at equilibrium during a topo II reaction. This assay determines the potential of a compound to stabilize this complex, which potential is closely related to the cytotoxicity of the compound.
Assays (in duplicate) were assembled at 4° C.
4 ng 3' end labeled (^32 P) pBR322 DNA (10^7 DMP/μg)
The assay mix including the test compound was incubated for 20 minutes at 37° C. The reaction was terminated at 37° C. by the addition of 3 μl 10% SDS followed by the addition of 266 μl 10 mM Tris-Cl pH 7.5, 20 μg/ml BSA, 20 μg/ml calf thymus DNA, 1% SDS.
A SDS/protein precipitate was formed by the addition of 28 μl 2.5M KCl followed by chilling on ice for a minimum of 10 minutes. The precipitate was collected and washed with a Brandell cell harvester on a GFB glass fiber filter membrane as follows. The contents of the assay tube were drawn up into the harvester. The tube was then rinsed 7X with 10 mM Tris-Cl pH 7.5, 1 mM EDTA and 100 mM KCl. […] After drying, CPM was determined by liquid scintillation counting with 5 ml Biofluor (NEN Research Products) or Readisafe (Beckman Instruments Inc.) cocktail.
This solution then was diluted 1/5 into water and serially thereafter in either 0.02N sodium hydroxide or 0.04N hydrogen chloride, respectively. The stock solution and serial dilution of the test compound was stored at -20° C. prior to testing.
Screening of test compound--As an initial screen, the test compound was tested at a final concentration of 2, 20 and 200 μg/ml. The compound was then retested at a range of concentrations (usually 2-3X steps) bridging their approximate EC50 's, as estimated by the prescreen.
Controls--A solvent control which indicates the base level of topo II-DNA complex formed in the absence of the test compound was included in each test. A control, in which topo II was omitted, was included for each test compound at the highest drug concentration tested.
Reference Agent--A dose response curve with mAMSA at 0.01, 0.08, 0.16, 0.32, 1.0 and 10 μg/ml was included in each test.
The maximal DNA-topo II complex formed is taken as that equal to that formed at the nearly saturating dose of mAMSA (10 μg/ml).

[1] = system: P388 murine leukemia cells; assay: Malignant cell cytotoxicity, one-hour exposure (clonogenic survival in soft agar); type: cell-based; conditions: Mus musculus, 1 hr exposure, read-out: IC50 P388 1 hr. exp.
Method: (§1) Examples of compound I having Topo II activity were tested for malignant cell cytotoxicity. In vitro cytotoxicity was assayed by determining cell survival following exposure of P388 murine leukemia cells to a range of test compound concentrations. Cytotoxicity was quantitated following either a one-hour exposure or continuous exposure of P388 cells to test compound.
(§2) Cytotoxicity following a one-hour exposure of cells to drug was assayed by quantitating clonogenic cell survival according to a published procedure [Freshney, R. L. (1987) Culture of Animal Cells. A Manual of Basic Technique. Wiley-Liss Inc., New York, N.Y., pp. 140-144]. Briefly, following drug exposure cells were plated in soft agar and incubated (37°, 5% CO2) for 7-10 days during which time viable cells form visible colonies. Cytotoxicity following continuous exposure of cells to test compound was assayed by quantitating total P388 cells on a Coultier Counter following a 48-hour co-incubation of test compound with cells. P388 cells were maintained in log phase throughout the duration of cytotoxicity assays.
(§3) The percentage of cells surviving relative to an untreated control was graphed as a function of increasing drug concentration.

[2] = system: P388 murine leukemia cells; assay: Malignant cell cytotoxicity, continuous 48-hour exposure (Coulter Counter); type: cell-based; conditions: Mus musculus, read-out: IC50 P388 cont. exp.
Method: as §1, §2, §3

[3] = In vivo antitumor assay, Panc03(sc); set-up: species or system mouse; conditions: mouse, in vivo
Description: (§4) Mice: Inbred: C3H/He and NCR-nu; and Hybrids: B6D2Fl (C57BL/6 females X DBA/2 males, CD2Fl (Balb/c females X DBS/2 males) and B6x C3fl (C57BL/6 x C3H) were bred at Wayne State University from strained obtained from the Frederick Cancer Research Facility, Frederick, Md. or purchased from commercial suppliers.
(§5) Tumors: Murine Tumor: P388 and an adriamycin-resistant (ADR) subline P388/ADR leukemia and the following transplantable solid tumors of mice were used for in Vivo testing: B16 melanoma (B16), pancreatic ductal adenocarcinoma No. 03 (Panc 03), colon adenocarcinoma No. 38 (colo 38), mammary ductal adenocarcinoma No. 16/C (Mam16) and an adriamycin-resistantsubline Mam16C/ADR. Human tumor: A single human tumor, mammary carcinoma MX-1 (MX1) was used for in vivo testing. All tumors are in the Developmental Therapeutics Program frozen tumor respository, maintained by the Biological Testing Branch, Frederick Md. Each has a detailed description, code identification number, and list of references at the National Tumor Repository. Murine tumors were maintained in the mouse strain of origin and were transplanted in the appropriate F1 hydrid (or the strain of origin) for therapy trials. Human mammary carcinoma MX-1 MX1) was maintained as a subcutaneous implant in either athymic Swiss (Cr: NIH(S)-nu) or athymic random bred (NCR-nu) mice and transplanted in NCR-nu for therapy trials.
(§6) Chemotherapy: For pancreatic ductal adenocarcinoma No. 3, colon adenocarcinoma No. 38 (colo38), lung carcinoma No. 12 (LC12) and both adriamycin-sensitive (RP) and -resistant ADR) mammary ductal adenocarcinoma No. 16 (Mam16) tumors, the following methods were used to help ensure a more uniform tumor burden per mouse (thus reducing the requirement for greater numbers of mice per group), bilateral tumor implants were used. The animals necessary to begin an experiment were pooled, implanted bilaterally s.c. on day zero with 30-60-mg tumor fragments using a 12-gauge trocar, and again pooled before randomization to the various treatment and control groups. Chemotherapy was started within three days after tumor implantation while the number of cells per mouse was relatively small (1×10^7 […]).
(§7) Quantitative end points used assess antitumor activity included % Increased Life Span (% ILS), Tumor Cell Kill (Log10 kill), and Tumor Growth Inhibition (T/C). Long Term Survivors (45 or 60 day) were excluded from calculations of % ILS and Tumor Cell Kill.
(§8) The log10 cell kill was calculated from the following formula: [formula] where T-C is the tumor difference in the median day of death between the treated (T) and the control (C) groups and Td is the tumor doubling time (in days), the latter estimated from the best fit straight line from a log-linear growth plot of the control-group tumors in exponential growth. The conversion of the T-C values to log10 cell kill is possible because the Td for tumors regrowing post-treatment approximated the Td values of the tumors in untreated control mice.
(§9) Tumors were measured with a caliper once or twice weekly (as needed) until either tumors exceeded 1600 mg or cure was assured. Tumor weights were estimated from two-dimensional measurements: Tumor Weight (mg)=(a×b^2) / 2, where a and b are the tumor length and width (nun) respectively. Measurements were carried out simultaneously in both treatment and control groups. When the control group tumors reached approximately 750-1500 mg in size (median of group), the median tumor weight of each group was determined (including zeros). The T/C value in percent is an indiation of antitumor effectiveness. The % T/C was calculated from the following formula for solid murine tumor models: [formula] where T and C are median tumor weights of the treatment and control groups, respectively. A T/C equal to or less than 42% is considered significant antitumor activity. […]

[4] = system: pancreatic ductal adenocarcinoma No. 03 (Panc 03); assay: In vivo antitumor assay, Panc03(sc); set-up: species or system mouse
Description: as §4, §5, §6, §7, §8, §9

[5] = drug route iv, sc, Ex 18 iv qd 3 bid 4-9, sc bid 10-11, Ex 20 iv qd 3,5 bid 4,6-8, sc bid 9-11 qd 12, read-out: MTD
[6] = drug route iv, sc, Ex 18 iv qd 3 bid 4-9, sc bid 10-11, Ex 20 iv qd 3,5 bid 4,6-8, sc bid 9-11 qd 12

| Compound | EC50 (human topoisomerase II) [µM] | IC50 [1] [µM] | IC50 [2] [µM] | MTD ([3]; drug route sc, qd 3-12, footnote 1, read-out: MTD (MTD not achieved, maximum dose tested)) [mg/kg] | T/C % ([4]; drug route sc, Ex 3 qd 3-12, Ex 26 qd 3,5-7 bid 4) [%] | MTD [3, 5] [mg/kg] | T/C % [4, 6] [%] |
| --- | --- | --- | --- | --- | --- | --- | --- |
| Cc1cc(-c2c(F)cc3c(=O)c(Cc4ccccc4)cn(C4CC4)c3c2F)cc(C)n1 [Example 3] | 3.9 | 7.3 | 7.1 | > 3750 | > 100 | – | – |
| Cc1cc(-c2c(F)cc3c(=O)c(Cc4ncc[nH]4)cn(C4CC4)c3c2F)cc(C)n1 [Example 18] | 1.1 | 1.1 | – | – | – | 88 | 21 |
| Cc1cc(-c2c(F)cc3c(=O)c(Cc4cccc(F)c4OCc4ccccc4)cn(C4CC4)c3c2F)cc(C)n1 [Example 20] | > 90 | 0.25 | – | – | – | 336 | 80 |
